Results as given in PMC11912471 (Journal of Medicinal Chemistry, 2025).
“And” between values parts separate entries of the source, which are not always exact repeats. Identical values can stand only once. Counter-ions that a name gives are not always drawn.

Legend:
[1] = Sulforhodamine B (SRB) cytotoxicity assay, neonatal fibroblasts; format: cell-based, human; details: human, normal primary neonatal fibroblast cells; 72 hrs @500 µM; supplement csv
Procedure: (§1) Our strategy to identify novel ODC inhibitors was to first screen new analogs for ODC inhibition at 50 μM using our in vitro enzyme activity assay and purified human ODC (Table 1). Those showing significant inhibition were then titrated to provide an ODC IC50 followed by cell-based screening against both cancer (Kelly neuroblastoma) and noncancerous (neonatal fibroblasts) cell lines. For the cancer cell line, higher cytotoxicity was desired and for the noncancerous cell line counter screen, lower cytotoxicity was desired.
(§2) Normal primary human neonatal fibroblast cells (ATCC) were maintained in DMEM medium (Gibco) supplemented with 10% heat-inactivated fetal bovine serum (Hyclone), penicillin (100 IU/mL), and streptomycin (100 μg/mL), nonessential amino acids (0.1 mM) and sodium pyruvate (1 mM). Kelly neuroblastoma cells (Sigma-Aldrich) were maintained in RPMI medium (Corning) supplemented with 10% heat-inactivated fetal bovine serum (Hyclone), penicillin (100 IU/mL), and streptomycin (100 μg/mL). Cell lines were routinely monitored for mycoplasma contamination using the MycoAlert PLUS Mycoplasma Detection Kit (Lonza).
(§3) The colorimetric sulforhodamine B (SRB) assay was used to measure cytotoxicity following treatment with ODC inhibitors. Briefly, Kelly neuroblastoma cells and normal primary human neonatal fibroblast cells were plated in transparent flat 96-well plates and allowed to attach overnight. Cells were treated with control or 500 μM ODC inhibitor for 72 h. Cells were then fixed with 10% TCA at 4 °C for 1 h, washed with deionized water, and dried at room temperature. Cells were stained with 100 μL of 0.4% SRB in 1% acetic acid for 20 min at room temperature, rinsed five times with 1% acetic acid and allowed to dry at room temperature. One hundred μL of 10 mM Tris–HCl pH 7.0 was added to each well, shaken for 10 min at room temperature and absorbance was read at 540 nm. Absorbance values were normalized relative to control readings and converted to percentage by multiplying by one hundred. The percent cytotoxicity was then determined by subtracting the relative percentage of the ODC inhibitor treated readings from the control which is 100%.

[2] = system: normal primary human neonatal fibroblast cells; assay: as above; format: cell-based; details: 500 μM; for cytotoxic activity against neonatal fibroblasts (in words): 72 h; for Cell cytotoxicity (72 hr @ 500 μM) Neonatal Fibroblasts: percent cytotoxicity
Procedure: as §1, §2, §3

[3] = biological target: T1, purified human ODC enzyme (Homo sapiens, UniProt P11926); assay: In vitro ODC enzyme activity assay; format: biochemical; details: for inhibition at 50 µM: read-out: ODC biochemical inhibition % (50 μM); for IC50: read-out: ODC biochemical inhibition IC50; for lower activity relative to racemic 7: ratio of ODC IC50s
T1 construct: His6 (C); made in house; host or cells: E. coli BL21(DE3)
T1 sequence (P11926 1-461): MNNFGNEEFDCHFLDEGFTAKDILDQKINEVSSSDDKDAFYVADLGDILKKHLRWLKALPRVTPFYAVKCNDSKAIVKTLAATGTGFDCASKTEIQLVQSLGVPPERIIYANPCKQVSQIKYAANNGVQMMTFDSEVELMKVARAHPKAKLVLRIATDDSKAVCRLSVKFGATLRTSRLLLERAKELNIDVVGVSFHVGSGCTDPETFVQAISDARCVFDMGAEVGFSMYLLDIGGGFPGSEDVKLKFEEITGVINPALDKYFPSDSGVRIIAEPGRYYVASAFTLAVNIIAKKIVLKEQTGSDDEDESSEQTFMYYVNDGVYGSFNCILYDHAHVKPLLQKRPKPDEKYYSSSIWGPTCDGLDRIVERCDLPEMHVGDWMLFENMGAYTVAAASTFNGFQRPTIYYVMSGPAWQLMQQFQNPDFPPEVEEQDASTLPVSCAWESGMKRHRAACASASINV
Procedure: as §1
In vitro ODC activity was measured using 100 ng of purified human ODC enzyme, as we previously described.[53],[99] ODC was incubated with increasing concentrations of inhibitors for 30 min at room temperature in a buffer containing 25 mM Tris and 0.1 mM EDTA. […] In the cell-based ODC activity assay, Kelly neuroblastoma cells that were treated with 500 μM inhibitors were harvested in a buffer containing 25 mM Tris HCl, 0.1 mM EDTA, and 2.5 mM DTT. […] For both the in vitro and cell-based assay, the microcentrifuge tubes were then placed into scintillation vials containing a piece of filter paper saturated with 200 μL of 0.1 M NaOH to capture the release of radiolabeled carbon dioxide. The samples were incubated in a 37 °C incubator while shaking for 30 min (in vitro) or 2 h (cell-based). The enzymatic reaction was stopped by adding 250 μL of 5 M sulfuric acid to each sample and incubating at 37 °C while shaking for 30 min. The microcentrifuge tubes were removed from the scintillation vials, and 5 mL of scintillation fluid was added. Disintegrations per minute (DPM) of each sample was measured using a TriCarb liquid scintillation counter (PerkinElmer). The specific ODC activity is expressed as nmol CO2/min/mg protein (in vitro) or pmol CO2/min/mg protein (cell-based). The individual ODC inhibitor IC50 values were determined using Graphpad Prism 8.

[4] = system: Kelly neuroblastoma cells; assay: Sulforhodamine B (SRB) cytotoxicity assay, Kelly neuroblastoma cells; format: cell-based; details: for activity against Kelly neuroblastoma cells (in words): 72 h; for activity against Kelly neuroblastoma cells (in words) / Cell cytotoxicity (72 hr @ 500 μM) Kelly Neuroblastoma: 500 μM; for Cell cytotoxicity (72 hr @ 500 μM) Kelly Neuroblastoma: percent cytotoxicity; for cytotoxicity at 500 µM: Kelly, 72 hrs @500 µM, supplement csv, read-out: Kelly Neuroblasoma Cells (72 hrs @500 µM) %cytotoxicity
Procedure: as §1, §2, §3

ODC = details: even at high (>500 μM) concentrations; no reference given; cited from earlier work
[5] = cited from earlier work

| Compound | cytotoxicity at 72 h, 500 µM [1] [%] | cytotoxic activity against neonatal fibroblasts (in words) [2] | Cell cytotoxicity (72 hr @ 500 μM) Neonatal Fibroblasts [2] [%] | LE ([3]; ligand efficiency) | inhibition at 50 µM [3] [%] | IC50 [3] | LE ([3]; supplement csv) | activity against Kelly neuroblastoma cells (in words) [4] | Cell cytotoxicity (72 hr @ 500 μM) Kelly Neuroblastoma [4] [%] | relative activity of S-enantiomer over R-enantiomer ([3]; 10-S-PLP vs 10-R-PLP, ODC IC50) [fold] | ODC inhibitory activity (in words) [3] | cytotoxicity at 500 µM [4] [%] | lower activity relative to racemic 7 [3] [x] | inhibition of ODC (in words) (ODC) | pKa of amino group ([5]; ornithine α-amino group, putrescine nitrogen) | pKa printed in Figure 1 ([5]; ornithine α-amino, putrescine) |
| --- | --- | --- | --- | --- | --- | --- | --- | --- | --- | --- | --- | --- | --- | --- | --- | --- |
| Cc1ncc(COP(=O)(O)O)c(/C=N/OC[C@@H]2CCNC2)c1O [10-R-PLP] | 36 | generally more toxic | 36±17 | 0.41 | 96 | 160 nM | 0,41 | disappointing neuroblastoma cellular activities | 52±6 | – | – | – | – | – | – | – |
| Cc1ncc(COP(=O)(O)O)c(/C=N/OC[C@H]2CCNC2)c1O [10-S-PLP, ({5-hydroxy-6-methyl-4-[(E)-({[(3S)-pyrrolidin-3-yl]methoxy}imino)methyl]pyridin-3-yl}methoxy)phosphonic acid] | 40 | generally more toxic | 40±61 | 0.47 | 93 | 30 nM | 0,47 | disappointing neuroblastoma cellular activities | 11±4 | 8 | – | – | – | – | – | – |
| Cc1ncc(COP(=O)(O)O)c(/C=N/OCC2(F)CCNC2)c1O (centres unmarked) [11-PLP, ({4-[(E)-{[(3-fluoropyrrolidin-3-yl)methoxy]imino}methyl]-5-hydroxy-6-methylpyridin-3-yl}methoxy)phosphonic acid] | 57 | generally more toxic | 57±20 | 0.41 | 92 | 90 nM | 0,41 | disappointing neuroblastoma cellular activities | 9±13 | – | – | – | – | – | – | – |
| Cc1ncc(COP(=O)(O)O)c(/C=N/OCCCN)c1O [APA-PLP, ({4-[(E)-[(3-Aminopropoxy)imino]methyl]-5-hydroxy-6-methylpyridin-3-yl}methoxy)phosphonic Acid] | 12 | generally more toxic | 12±19 | 0.45 | 99 | 150 nM | 0,45 | disappointing neuroblastoma cellular activities | 24±9 | – | – | – | – | – | – | – |
| NOCCC1CCCCN1 (centres unmarked) [Compound 6] | – | – | – | – | 3 | – | – | – | – | – | no ODC activity | – | – | – | – | – |
| NOCC1CCCNC1 (centres unmarked) [Compound 7, 3-[(Aminooxy)methyl]piperidine Dihydrochloride] | 3 | reduced cytotoxic activity | 3±6 | – | 99 | ~180 nM and 180 nM | – | – | 54±9 | – | – | 54 | – | – | – | – |
| NOC[C@@H]1CCCNC1 [Compound 7-R] | 0 | reduced cytotoxic activity | 0±14 | – | 99 | 770 nM | – | – | 49±5 | – | – | 49 | ~4 | – | – | – |
| NOC[C@H]1CCCNC1 [Compound 7-S] | 0 | reduced cytotoxic activity | 0±15 | – | 99 | 700 nM | – | – | 65±6 | – | – | 65 | ~4 | – | – | – |
| NOCC1CNCCO1 (centres unmarked) [Compound 8] | 0 | reduced cytotoxic activity | 0±11 | – | 95 | 780 nM | – | – | 37±11 | – | – | 37 | – | – | – | – |
| NOC1CCNCC1 [Compound 9] | – | – | – | – | 0 | – | – | – | – | – | no inhibitory activity | – | – | – | – | – |
| NOC[C@@H]1CCNC1 [Compound 10-R] | 16 | reduced cytotoxic activity | 16±13 | – | 99 | 210 nM | – | – | 73±12 | – | – | 73 | – | – | – | – |
| NOC[C@H]1CCNC1 [Compound 10-S] | 9 | reduced cytotoxic activity | 9±8 | – | 99 | 100 nM | – | – | 52±18 | – | – | 52 | – | – | – | – |
| NOCC1CCNC1 (centres unmarked) [Compound 10] | 14 | reduced cytotoxic activity | 14±10 | – | 99 | 360 nM | – | – | 66±8 | – | – | 66 | – | – | – | – |
| NCCCCN [putrescine] | – | – | – | – | – | – | – | – | – | – | – | – | – | not an inhibitor | ~10.5 | ~ 10 |
